From patent publication EP0004894A1, “Fertilizer for providing plants with iron” (BAYER AG, priority 1978, dated 1979)

Assays:
[1] = tested on: Chrysanthemum indicum (Sorte: Yellow Delaware); test: Iron deficiency control / leaf uptake test (Eisenmangel-Bekämpfung / Blattaufnehmbarkeits-Test); type: in vivo; details: for Intenistät der Grünfärbung junger Blätter / Ø Anzahl neu gebildeter Blätter: sprayed twice on fully chlorotic plants
Text: Eisenmangel-Bekämpfung / Blattaufnehmbarkeits-Test
In einem Kultursubstrat der oben angegebenen Zusammensetzung werden Versuchspflanzen angezogen, wobei die Dünung und die Bewässerung dadurch erfolgt, daß man zweimal wöchentlich eine mineralische Eisenmangel-Nährlösung nach Hoagland und Arnon (Circular 347, College of Agriculture, University of California, Berkeley 1950) hinzugibt. Die so angezogenen völlig chlorotischen Versuchspflanzen werden in Fünfblattstadium mit der Wirkstoffzubereitung tropfnaß besprüht, wobei durch Abdecken dafür gesorgt wird, daß die Wirkstoffzubereitung nicht in das Kultursubstrat gelangt. Nach 2 Tagen wird erneut in gleicher Weise mit der Wirkstoffzubereitung besprüht. Die Auswertung erfolgt dann, wenn bei den mit einem wasserlöslichen, handelsüblichen Eisen-Dünger in optimaler Menge behandelten Pflanzen durchschnittlich 3 Blätter neu gebildet sind. Es wird jeweils die durchschnittliche Anzahl neu gebildeteter Blätter bei allen Versuchspflanzen ermittelt. Ferner wird die Intensität der Grünfärbung von neu gebildeten Blättern bonitiert und durch Kennzahlen ausgedrückt.

[2] = Water solubility of the preparation; type: physicochemical
[3] = 0,1 % preparation in spray liquid
[4] = 0,02 % preparation in spray liquid
[5] = 0,5 % preparation in spray liquid

Row | Structure (SMILES) | Intenistät der Grünfärbung junger Blätter [1, 3] | Ø Anzahl neu gebildeter Blätter [1, 3] | Intenistät der Grünfärbung junger Blätter [1, 4] | Ø Anzahl neu gebildeter Blätter [1, 4] | Intenistät der Grünfärbung junger Blätter [1, 5] | Ø Anzahl neu gebildeter Blätter [1, 5] | Eisenmangel ([1]; fully chlorotic Chrysanthemum indicum, Sorte Yellow Delaware) | Wasserlöslichkeit des Präparates [2]
1 | CC(CC(=O)[c-]1cccc1)CC(C)(C)C.[Fe+2].c1cc[cH-]c1 (stereo not drawn) [3,5,5-Trimethylhexanoyl-ferrocen] | 2 | 5 | 3 (25 %-ig chlorotisch) | 4 | 1 (0 %-ig chlorotisch (dunkelgrün)) | 7 | stark verringern oder sogar völlig beheben | gering
2 | CCC(=O)c1cc[cH-]c1.[Fe+2].c1cc[cH-]c1 [Propionylferrocen, reference compound] | 3 (25 %-ig chlorotisch) | 4 | 8 | 3 | 2 | 5 |  | gering
